Experimental data reported in US20220015355A1, “NOVEL CARRIER FLUIDS FOR LIQUID FUNGAL SPORE FORMULATIONS” (priority 2018, published 2022).
Like-named read-outs stand apart in the source and are kept apart here. Marks after values point to notes of the source that are not given here.

Experiments:
[1] = tested on: P. lilacinum strain 251 spores; assay: spore viability (germination rate on agar) of P. lilacinum spores in carrier fluid after storage at 30° C.; assay type: cell-based, Purpureocillium lilacinum; settings: for decline in spore viability at day 1 and after storage: fluids not within the scope of the invention
Description: (§1) 3 g of P. lilacinum strain 251 pure spore powder were transferred into a formulation vessel (IKA Type DT-20 mixing vessel with dispersion tool for Ultra Turrax) using a sterile spoon. 12 mL of fluid were added into the respective formulation vessel and dispersed using ultra turrax tube drive control for 1 min at 3000 rpm; change direction after 30 sec. After this 2.8 mL were transferred in four sample bottles (Wheaton Serum vial, Type I) leaving little headspace and closed tight using crimpneck caps (Macherey—Nagel type N 13) Afterwards all sample bottles were transferred to an incubator set at 30° C. and stored for a given time.
(§2) In regular intervals a sample was retrieved from the storage location and analyzed for spore viability. Therefore the original samples were thoroughly homogenized. Aliquots of 0.25 g or […] of each sample are transferred into 50 mL falcon tubes. The tubes were filled up to 25 g using a sterile aqueous solution containing 2% Tween 80 and homogenized by vortexing to achieve the first dilution step (1:100 dilution). This dilution is used for further dilution and spotting on agar.
(§3) For evaluation of spore germination rate prepare a 1:30000 dilution based on the 1:100 dilution achieved by multiple automated dilution (pipetting robot, 96 well plate). Afterwards 12×12 cm agar plates are taken and spotted with 10 times […] of each sample using an automated 12-Channel pipet. Wait until liquid is soaked up by agar and transfer agar plate to an incubator and incubate at 25° C. for 17 hours. Open the plate and place it under the microscope. Randomly choose one area per spot and record the number of germinated and non-germinated spores that are within the designated field. At least 200 spores per sample need to be evaluated. If needed count more than one field per spot.

[2] = tested on: Isaria fumosorosea spores; assay: spore viability of Isaria fumosorosea spores in carrier fluid after storage at 30° C., Method 1 (germination on agar); assay type: cell-based; settings: Method 1
Description: as §1, with “Method 1: 1.5 g” for “3 g”, “of Isaria fumosorosea” for “of P. lilacinum strain 251”, “spoon. 13.5” for “spoon. 12”
as §2
For evaluation of spore germination rate a 1:15000 dilution based on the 1:100 dilution achieved by multiple automated dilution (pipetting robot, 96 well plate) was prepared. Afterwards 12×12 cm agar plates were taken and spotted with 10 times 5 μL of each sample using an automated 12-Channel pipet. After all liquid is soaked up by agar the agar plates were incubated at 23° C. for 16 hours.

[3] = tested on: Isaria fumosorosea spores; assay: spore viability of Isaria fumosorosea spores in carrier fluid after storage, Method 2 (flow cytometry); assay type: cell-based
Description: Method 2: 0.5 g of Isaria fumosoresea pure spore powder were transferred into an Erlenmeyer flask using a sterile spoon. 24.5 mL of fluid were dispersed using Ultra-Turrax (IKA; Type T 25 D) for 1 min at 3,000 rpm. After this, 2.0 mL were transferred in 20 sample bottles (Wheaton Serum vial, Type I) leaving little headspace and closed tight using crimpneck caps (Macherey—Nagel type N 13). Afterwards all sample bottles were transferred to an incubator set at 30° C. and stored for a given time.
In regular intervals a sample was retrieved from the storage location and analyzed for spore viability. For this purpose, the original samples were thoroughly homogenized. Aliquots of 0.5 g of each sample were transferred into 100 mL-Erlenmeyer flask. The flasks were filled up to 50 g using a sterile aqueous solution containing 0.1% Break Thru® 5240 (Evonik, Industries) and homogenized on a magnetic stirrer (Thermo Fisher Scientific: Cimarec™) at least for 15 min with 750 rpm to achieve the first dilution step (1:100 dilution). This dilution was used for further dilution.
Not all samples mixed well or mixed at all in 0.1% Break Thru 5240. For these samples, 500 μL Neo-wett (Kwizda Agro GmbH) and/or a small amount (knife tip) Metaupon®-OMT (LEUNA Tenside GmbH) were also added to the aqueous solution.
After homogenization 1 mL were transferred into a 1.5 mL tube and were centrifuged for 15 min at 14,000 rpm (Thermo Fisher Scientific, Type Megafuge 8R). The supernatant (=upper phase) was discarded by using a pipette. The tubes were filled up to 1 mL using a sterile aqueous solution containing 0.1% Neo-wett and homogenized by vortexing.
To assess fungal viability, a method based on flow cytometry was used.

[4] = tested on: Beauveria Bassiana spores; assay: spore viability (germination rate on agar) of Beauveria bassiana spores in carrier fluid after storage at 30° C.; assay type: cell-based
Description: as §1, with “1.5 g” for “3 g”, “of Beauveria Bassiana” for “of P. lilacinum strain 251”, “spoon. 13.5” for “spoon. 12”
as §2
as §3, with “1:15000” for “1:30000”, “20°” for “25°”

[5] = tested on: Penicillium bilaii (ATCC 20851) spores; assay: spore viability (germination rate on agar) of Penicillium bilaii spores in carrier fluid after storage at 30° C.; assay type: cell-based
Description: as §1, with “1.5 g” for “3 g”, “of Penicillium bilaii (ATCC 20851)” for “of P. lilacinum strain 251”, “spoon. 13.5” for “spoon. 12”
as §2
as §3, with “1:15000” for “1:30000”, “20°” for “25°”

[6] = P. lilacinum strain 251 in the liquid, day 1
[7] = Purpureocillium lilacinum, 35 d

COC(C)COC(C)COC(C)=O (centres unmarked) [Dowanol DPMA, Dipropylene glycol methyl ether acetate]
spore viability [%] at day 1 [1, 6]: 99.1%
spore viability [%] after 3 m (87-92 d) ([1]; storage at 30° C., 87-92 d): 35.7%
spore viability [%] after 5 w (35 d) ([1]; storage at 30° C., 35 d): 93.0%
spore viability [%] at day 1 ([2]; I. fumosorosea, day 1): 87.7%
spore viability [%] after 1 m (27 d) ([2]; storage at 30° C., 27 d): 63.6%
spore viability [%] after 7 m (210 d) ([2]; storage at 30° C., 210 d): 31.4%

CC(=O)OCC(C)OC(C)=O (centres unmarked) [Dowanol PGDA, Propylenglycol Diacetat]
spore viability [%] after 3 m (87-92 d) ([1]; Purpureocillium lilacinum): 88.4%
spore viability after storage for 2 or 3 months, respectively ([1]; Purpureocillium lilacinum): ≥ 80%
spore viability [%] at day 1 ([1]; Purpureocillium lilacinum, 1 d): 98.8%
spore viability [%] after 5 w (35 d) [1, 7]: 98.2%
spore viability [%] at day 1 ([3]; Isaria fumosorosea, 1 d): 97.0%
spore viability [%] after 1 m (27 d) ([3]; Isaria fumosorosea, 27 d): 53.0%
spore viability [%] at day 1 ([4]; Beauveria bassiana, 1 d): 90.6%
spore viability [%] after 3 w (21 d) ([4]; Beauveria bassiana, 21 d): 51.6%
spore viability [%] 3 m@30° C. (83-85 d) ([5]; Penicillium bilaii): 36.4%
spore viability [%] 6 w@30° C. (41-43 d) ([5]; Penicillium bilaii): 69.3%
spore viability [%] initial (1-2 d) ([5]; Penicillium bilaii): 93.6%

Polyethylene glycol Monooleate [Alkamuls A]
spore viability [%] after 1 m (27 d) [3]: 90.7%
spore viability [%] after 2 w (~14 d) [3]: 93.0%
spore viability [%] at day 1 [3]: 94.4%

COCCOCCOCCO [Methoxytriglycol, Triethylenglycol monomethyl ether, reference compound]
spore viability [%] after 3 m (87-92 d) ([1]; Purpureocillium lilacinum): 19.9%
spore viability [%] at day 1 ([1]; Purpureocillium lilacinum, 1 d): 83.3%
spore viability [%] after 5 w (35 d) [1, 7]: 55.3%
decline in spore viability at day 1 and after storage ([1]; text summary of Table I): steep decline in spore viability
spore viability [%] at day 1 ([4]; Beauveria bassiana, 1 d): 79.7%
spore viability [%] after 2 w (14 d) ([4]; Beauveria bassiana): 12.3%
spore viability [%] after 5 w (35 d) ([4]; Beauveria bassiana): 1.5%
decline in spore viability after storage under given conditions ([4]; Table III, fluids not within the scope of the invention): steep decline in spore viability
spore viability [%] 3 m@30° C. (83-85 d) ([5]; Penicillium bilaii): 30.3%
spore viability [%] 6 w@30° C. (41-43 d) ([5]; Penicillium bilaii): 43.1%
spore viability [%] initial (1-2 d) ([5]; Penicillium bilaii): 74.3%

COC(C)COC(C)CO (centres unmarked) [Dowanol DPM, Dipropylene Glycol monomethyl ether]
spore viability [%] at day 1 [1, 6]: 91.0%
spore viability [%] after 2 w (12-15 d) ([1]; storage at 30° C., 12-15 d): 95.3%
spore viability [%] after 1 m (27-28 d) ([1]; storage at 30° C., 27-28 d): 93.3%
spore viability [%] after 2 m (51-55 d) ([1]; storage at 30° C., 51-55 d): 74.7%
spore viability [%] at day 1 ([4]; Beauveria bassiana, day 1): 83.9%
spore viability [%] after 2 w (14 d) ([4]; storage at 30° C.): 61.0%
spore viability [%] after 5 w (35 d) ([4]; storage at 30° C.): 36.6%

CCCCOCCO [Butylcellosolve, Ethylenglycolmonobutylether, reference compound]
decline in spore viability at day 1 and after storage ([1]; text summary of Table I): steep decline in spore viability

Tween 80
spore viability [%] after 1 m (27 d) [3]: 72.0%
spore viability [%] after 2 w (~14 d) [3]: 76.4%
spore viability [%] at day 1 [3]: 96.2%

Tween 85
spore viability [%] after 1 m (27 d) [3]: 98.0%
spore viability [%] after 6 months [3]: 96.1*** %
spore viability [%] at day 1 [3]: 98.9%
spore viability after storage for 7 m at 30° C. [3]: ≥ 50%
spore viability [%] after 2 months [5]: 92.0$ %
spore viability [%] initial (1-2 d) [5]: 99.0%

Polyethylenglycol- 300 [Pluriol E300]
spore viability [%] after 1 m (27 d) [3]: 87.0%
spore viability [%] after 3 months [3]: 45.0* %
spore viability [%] at day 1 [3]: 96.0%

CCOCCOCCO [Carbitol, Diethylenglycolmonoethyl ether, reference compound]
spore viability [%] after 1 m (27 d) [3]: 12.0%
spore viability [%] after 2 w (~14 d) [3]: 13.7%
spore viability [%] at day 1 [3]: 78.0%

CCCCOCCOCCOCCO [Triethylenglycol monobutylether, Triethylenglycol-monobutylether]
spore viability [%] after 1 m (27-28 d) ([1]; Purpureocillium lilacinum): 57.5%
spore viability [%] after 3 m (87-92 d) ([1]; Purpureocillium lilacinum): 50.8%
spore viability [%] at day 1 ([1]; Purpureocillium lilacinum, 1 d): 77.5%

CCCCCCOCCO [Hexylcellosolve, Ethylenglycolmonohexylester, reference compound]
spore viability [%] after 3 m (87-92 d) [1]: 6.0%
spore viability [%] after 5 w (35 d) [1]: 27.4%
spore viability [%] at day 1 [1]: 79.5%
decline in spore viability at day 1 and after storage ([1]; text summary of Table I): steep decline in spore viability

COCCOCCOCCOCCOC [Tetraglyme, Tetraethylenglycol diether]
spore viability [%] after 1 m (27-28 d) [1]: 94.8%
spore viability [%] after 2 m (51-55 d) [1]: 93.2%
spore viability [%] after 2 w (12-15 d) [1]: 97.6%
spore viability [%] after 7 m (210 d) [1]: 83.5%
spore viability [%] at day 1 [1]: 97.2%
spore viability after storage for 7 months at 30° C. (in words) ([1]; text summary of Table I): exceptional spore viability

2-(2-Ethoxyethoxy)ethyl acetate; Diethylene glycol monoethyl ether acetate [n-Butyldiglycolacetat]
spore viability [%] at day 1 [1, 6]: 93.2%
spore viability [%] after 3 m (87-92 d) ([1]; storage at 30° C., 87-92 d): 82.7%
spore viability [%] after 5 w (35 d) ([1]; storage at 30° C., 35 d): 89.3%

CCCOCCO [Propylcellosolve, Ethylenglycolmonopropylether, reference compound]
spore viability [%] after 3 m (87-92 d) [1]: 0.6%
spore viability [%] after 5 w (35 d) [1]: 8.1%
spore viability [%] at day 1 [1]: 76.2%
decline in spore viability at day 1 and after storage ([1]; text summary of Table I): steep decline in spore viability

Polyethyleneglycol-400 monolaurate [Radiasurf 7423]
spore viability [%] after 1 m (27-28 d) [1]: 93.8%
spore viability [%] after 2 m (51-55 d) [1]: 79.7%
spore viability [%] after 2 w (12-15 d) [1]: 91.4%
spore viability [%] after 7 m (210 d) [1]: 36.9%
spore viability [%] at day 1 [1]: 90.8%
spore viability after storage for 2 or 3 months, respectively [1]: ≥ 80%
spore viability [%] after 1 m (27 d) [3]: 42.3%
spore viability [%] after 2 w (~14 d) [3]: 58.0%
spore viability [%] at day 1 [3]: 86.7%

COCC(C)OCC(C)OC (centres unmarked) [Proglyde DMM, Dipropylene glycol dimethyl ether]
spore viability [%] after 3 m (87-92 d) ([1]; Purpureocillium lilacinum): 75.4%
spore viability [%] at day 1 ([1]; Purpureocillium lilacinum, 1 d): 98.8%
spore viability [%] after 5 w (35 d) [1, 7]: 96.0%
spore viability [%] at day 1 ([4]; Beauveria bassiana, 1 d): 88.4%
spore viability [%] after 2 w (14 d) ([4]; Beauveria bassiana): 48.0%
spore viability [%] after 5 w (35 d) ([4]; Beauveria bassiana): 21.8%
spore viability [%] 3 m@30° C. (83-85 d) ([5]; Penicillium bilaii): 10.5%
spore viability [%] 6 w@30° C. (41-43 d) ([5]; Penicillium bilaii): 29.6%
spore viability [%] initial (1-2 d) ([5]; Penicillium bilaii): 54.6%
